Some test systems named below: NCI/ADR-RES; OVCAR-3; RXF 393; HCT-116; NCI-H23; OVCAR-4; PC-3; NCI-H226; NCI-H522; HCT-15; BT-549; U-251; UO-31; SK-MEL-5; ACHN; A549; CCRF-CEM; DU-145; K562; HOP-62.
Experiment in all cases: NCI anticancer screen, dose series, 48 h

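Where inhibition never reached the appropriate level, the endpoint shown equals the highest concentration tested. Otherwise, values were interpolated linearly from a five-concentration, 48-hour dose response in 96-well plates. Abbreviation: GI50, concentration required for 50% inhibition of growth.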 Active and inactive are the calls of the source. Cut-off read from the data, not from the text of the source: active = GI50 up to about 1.1 µM and inactive = higher.

Results on 4 compounds are retold here after ChEMBL document CHEMBL1201862, “PubChem BioAssay data set” (2004).

Take `N#CC12C(=O)NC(=O)C1(C#N)C1C=CC2CC1` (configuration not stated): the GI50 with NCI/ADR-RES, in the test on OVCAR-3, in the test on RXF 393, with HCT-116, in the test on NCI-H23 and in the test with OVCAR-4 was > 100 µM (inactive) each time. The GI50 in the test with PC-3 was > 100 µM (inactive); with NCI-H226, > 100 µM (inactive); in the test with NCI-H522, > 100 µM (inactive); in the test with HCT-15 it was above 100 µM; with BT-549 it was > 100 µM (inactive); in the test on U-251, > 100 µM (inactive). For the same compound, the GI50 in the test with UO-31, with SK-MEL-5, in the test on ACHN, in the test with A549, in the test on CCRF-CEM and in the test with DU-145 was > 100 µM (inactive) throughout.
As for `CSc1c(C(=O)Nc2ccccc2)c(N)n(N)c(=O)c1C#N`, the GI50 in the test on NCI/ADR-RES, in the test on OVCAR-3, in the test with RXF 393, in the test on HCT-116, in the test with NCI-H23 and with OVCAR-4 was > 100 µM (inactive) in each case. In addition, the GI50 is > 100 µM (inactive) in the test on PC-3; > 100 µM (inactive) in the test on NCI-H226; 64 µM (inactive) in the test on NCI-H522; above 100 µM with HCT-15; > 100 µM (inactive) in the test with BT-549; > 100 µM (inactive) in the test on U-251. Besides, the GI50 in the test on UO-31, in the test with SK-MEL-5, in the test with A549, with CCRF-CEM, in the test on K562 and with DU-145 was > 100 µM (inactive) each time.
Take `CC1=C([S+]([O-])c2ccc(C)cc2)CCC2(CCCCO2)O1` (configuration not stated): the GI50 in the test on NCI/ADR-RES, in the test on OVCAR-3, with RXF 393, in the test on HCT-116, in the test with NCI-H23 and in the test on OVCAR-4 was > 100 µM (inactive) in each case. Further, the GI50 with PC-3 was > 100 µM (inactive); in the test on HOP-62, > 100 µM (inactive); in the test on NCI-H226, > 100 µM (inactive); with NCI-H522, > 100 µM (inactive); with HCT-15, above 100 µM; in the test with BT-549, > 100 µM (inactive). Also, the GI50 in the test on U-251 was > 100 µM (inactive); in the test with UO-31 it was > 100 µM (inactive); in the test with SK-MEL-5, 33.3 µM (inactive); in the test on ACHN it was > 100 µM (inactive); in the test with K562, 46.8 µM (inactive); in the test on DU-145 it was > 100 µM (inactive).
As for `COC[C@@H](C[C@H]1O[C@@](O)([C@H](O)[C@@H]2C[C@H](OC)[C@@H](O)CC/C=C(C)/C=C/[C@@H](O[C@@H]3O[C@@H](C)[C@H](OC)[C@@H](O)[C@@H]3O)[C@H](C)/C=C(C)/C=C(C)/C=C(\C)C(=O)O2)[C@H](C)[C@@H](O)[C@H]1C)O[C@H]1C[C@](C)(O)[C@@H](O[C@H]2C[C@@H](OC)[C@H](O)[C@@H](C)O2)C(C)O1` (some centres not stated), the GI50 in the test with NCI/ADR-RES is > 100 µM (inactive); in the test on OVCAR-3, 63.1 µM (inactive); in the test with RXF 393, > 100 µM (inactive); in the test with HCT-116 it was > 100 µM (inactive); in the test with NCI-H23, 0.0532 µM (active); in the test on OVCAR-4 it was 41.3 µM (inactive). The GI50 is 0.0447 µM (active) with PC-3; 0.91 µM (active) with NCI-H226; 0.0685 µM (active) in the test on NCI-H522; above 100 µM in the test on HCT-15; > 92.3 µM (inactive) in the test with BT-549; 0.0628 µM (active) in the test with U-251. Besides, the GI50 was > 100 µM (inactive) in the test on UO-31; 0.182 µM (active) in the test on SK-MEL-5; 96.4 µM (inactive) in the test on ACHN; 1.32 µM (inactive) in the test with A549; 0.149 µM (active) with K562; > 61.8 µM (inactive) in the test with DU-145.
